In patent US20160113919A1 (The Board of Trustees of the Leland Stanford Junior …, priority 2014, published 2016):

Test system: INH-resistant ΔkatG H37Rv
Test: microbe, parasite or virus in culture
Type: cell-based, Mycobacterium tuberculosis

Row | Structure (SMILES) | EC80 against ΔkatG H37Rv [µM] | microbicidal capacity compared with S-CQ or racemic CQ | inhibition at 50 µM (Mycobacterium tuberculosis, H37RV, RAW264.7) [%]
1 | CCN(CC)CCCC(C)Nc1ccnc2cc(Cl)ccc12 (racemic) [racemic CQ, chloroquine] | ~50 |  | 
2 | CCN(CC)CCC[C@@H](C)Nc1ccnc2cc(Cl)ccc12 [R-CQ, (R)-chloroquine] | 1 | significantly higher | 
3 | CCN(CC)CCC[C@H](C)Nc1ccnc2cc(Cl)ccc12 [S-CQ, (S)-chloroquine] |  |  | 60
